One data set has as its system OATP1B1/3. Put plainly: Substrate of transporter OATP1B1/3. The format is in vitro ADME.
Another data set has as its target T1, BCRP (Homo sapiens, UniProt Q9UNQ0).
T1 sequence (Q9UNQ0 1-655): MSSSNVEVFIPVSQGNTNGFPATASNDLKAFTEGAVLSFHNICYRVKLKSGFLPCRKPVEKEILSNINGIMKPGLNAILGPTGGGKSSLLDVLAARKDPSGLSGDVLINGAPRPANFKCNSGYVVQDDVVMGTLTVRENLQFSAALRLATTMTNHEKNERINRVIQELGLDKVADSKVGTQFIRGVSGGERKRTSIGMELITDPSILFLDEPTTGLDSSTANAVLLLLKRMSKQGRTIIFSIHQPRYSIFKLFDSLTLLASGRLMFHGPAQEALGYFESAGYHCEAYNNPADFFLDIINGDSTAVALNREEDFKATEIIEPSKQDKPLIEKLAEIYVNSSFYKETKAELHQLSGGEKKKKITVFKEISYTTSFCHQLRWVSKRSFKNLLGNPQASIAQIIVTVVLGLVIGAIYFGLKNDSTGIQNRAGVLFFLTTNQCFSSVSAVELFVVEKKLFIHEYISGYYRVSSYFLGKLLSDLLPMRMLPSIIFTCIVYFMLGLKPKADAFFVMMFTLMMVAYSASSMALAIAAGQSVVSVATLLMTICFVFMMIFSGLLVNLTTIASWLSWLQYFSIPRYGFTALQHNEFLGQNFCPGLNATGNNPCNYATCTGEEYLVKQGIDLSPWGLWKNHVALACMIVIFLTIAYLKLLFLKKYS
Put plainly: Substrate of transporter BCRP. Format: in vitro ADME.

The structures appear in SMILES notation.

For `CC(C)(C)[C@@H]1NC(=O)O[C@@H]2CCC[C@H]2OC/C=C/C(F)(F)c2nc3ccccc3nc2O[C@@H]2C[C@@H](C(=O)N[C@]3(C(=O)NS(=O)(=O)C4(C)CC4)C[C@H]3C(F)F)N(C2)C1=O` [Compound 1], the Substrate of transporter result in the data set with OATP1B1/3 is “OATP1B1/3”.

`COC(=O)N[C@H](C(=O)N1CCC[C@H]1c1nc2cc([C@H]3CC[C@H](c4cc5nc([C@@H]6CCCN6C(=O)[C@@H](NC(=O)OC)[C@@H](C)OC)[nH]c5cc4F)N3c3cc(F)c(N4CCC(c5ccc(F)cc5)CC4)c(F)c3)c(F)cc2[nH]1)[C@@H](C)OC` [Compound 2]: the Substrate of transporter entry on BCRP was “not excluded”.

(Values after patent US20210023012A1, “Solid Pharmaceutical Compositions for Treating HCV” (AbbVie Inc., priority 2019, published 2021).)
